Tested on: tobacco budworm (Heliothis virescens [Fabricius])
Assay: surface-treated diet test, insecticidal activity against tobacco budworm
Type: in vivo
Design: mortality: concentration or dose not given beside the values
Conditions: 0.25 millimoles of candidate insecticide on the surface of the diet, second instar larvae, five-day exposure; for Percent Mortality / mortality: compared to total number of insects infested; for Percent Growth Inhibition / pest or weed control at 0.25 mmol/well: inhibition of insect weight relative to untreated controls; for mortality / pest or weed control at 0.25 mmol/well: Heliothis virescens, 120 h; for mortality: read-out: Percent Mortality; for pest or weed control at 0.25 mmol/well: read-out: Percent Growth Inhibition
Protocol: Candidate insecticides were evaluated for activity against the tobacco budworm (Heliothis virescens [Fabricius]) in a surface-treated diet test.
In this test one mL of molten (65-70° C.) wheat germ-based artificial diet was pipetted into each well of a four by six (24 well) multi-well plate (ID# 430345-15.5 mm dia.×17.6 mm deep; Corning Costar Corp., One Alewife Center, Cambridge, Mass. 02140). The diet was allowed to cool to ambient temperature before treatment with candidate insecticide.
For a determination of insecticidal activity, solutions of the candidate insecticides were prepared for testing using a Packard 204DT Multiprobe® Robotic System (Packard Instrument Company, 800 Research Parkway, Meriden, Conn. 06450), in which the robot first diluted a standard 50 millimolar DMSO solution of candidate insecticide with a 1:1 water/acetone solution (V/V) in a ratio of 1:7 stock solution to water/acetone. The robot subsequently pipetted 40 microliters of the so-prepared solution onto the surface of the diet in each of three wells in the 24 multi-well plate. The process was repeated with solutions of seven other candidate insecticides. Once treated, the contents of the multi-well plate were allowed to dry, leaving 0.25 millimoles of candidate insecticide on the surface of the diet, or a concentration of 0.25 millimolar. Appropriate untreated controls containing only DMSO on the diet surface were also included in this test.
For evaluations of the insecticidal activity of a candidate insecticide at varying rates of application, the test was established as described above using sub-multiples of the standard 50 millimolar DMSO solution of candidate insecticide. For example, the standard 50 millimolar solution was diluted by the robot with DMSO to give 5, 0.5, 0.05, 0.005, 0.0005 millimolar, or more dilute solutions of the candidate insecticide. In these evaluations there were six replicates of each rate of application placed on the surface of the diet in the 24 multi-well plate, for a total of four rates of application of candidate insecticide in each plate.
In each well of the test plate was placed one second instar tobacco budworm larvea, each weighing approximately five milligrams. After the larvae were placed in each well, the plate was sealed with clear polyfilm adhesive tape. The tape over each well was perforated to ensure an adequate air supply. The plates were then held in a growth chamber at 25° C. and 60% relative humidity for five days (light 14 hours/day).
After the five-day exposure period insecticidal activity for each rate of application of candidate insecticide was assessed as percent inhibition of insect weight relative to the weight of insects from untreated controls, and percent mortality when compared to the total number of insects infested.
The test compounds of formula I are identified by numbers that correspond to those in Table 1.

SMILES	Percent Mortality [%]	Percent Growth Inhibition [%]	mortality [%]	pest or weed control at 0.25 mmol/well [%]
OC1(C(c2ccc(OC(F)(F)F)cc2)c2ccc(OC(F)(F)F)cc2)CCN(Cc2ccc(Oc3ncccc3C(F)(F)F)cc2)CC1 [Compound 30]	100	100		
CCCOc1ccc(CN2CCC(O)(C(O)(c3ccc(OC(F)(F)F)cc3)c3ccc(OC(F)(F)F)cc3)CC2)cc1 [Compound 91]	100	100		
CCCOc1ccc(CN2CCC(O)(C(O)(c3ccc(C(F)(F)F)cc3)c3ccc(C(F)(F)F)cc3)CC2)cc1 [Compound 92]	100	100		
Cn1nnc(-c2ccc(CN3CCC(O)(C(O)(c4ccc(OC(F)(F)F)cc4)c4ccc(OC(F)(F)F)cc4)CC3)cc2)n1 [Compound 93, 4-{bis[4-(trifluoromethoxy)phenyl]hydroxymethyl}-1-{[4-(2-methyl(1,2,3,4-tetrazol-5-yl))phenyl]methyl}piperidin-4-ol]			100	100
[O-][N+]1(Cc2ccc(Oc3ccccn3)cc2)CCC(O)(C(c2ccc(C(F)(F)F)cc2)c2ccc(C(F)(F)F)cc2)CC1 (stereo not shown) [Compound 111]	100	100		
[O-][N+]1(Cc2ccc(Oc3ncccn3)cc2)CCC(O)(C(c2ccc(OC(F)(F)F)cc2)c2ccc(OC(F)(F)F)cc2)CC1 (stereo not shown) [Compound 112, 4-{bis[4-(trifluoromethoxy)phenyl]methyl}-4-hydroxy-1-[(4-pyrimidin-2-yloxyphenyl)methyl]piperidin-1-oxide]			100	100
CCn1nnc(-c2ccc(C[N+]3([O-])CCC(O)(C(c4ccc(C(F)(F)F)cc4)c4ccc(C(F)(F)F)cc4)CC3)cc2)n1 (stereo not shown) [Compound 113]	100	100		
CCn1nnc(-c2ccc(C[N+]3([O-])CCC(O)(C(c4ccc(OC(F)(F)F)cc4)c4ccc(OC(F)(F)F)cc4)CC3)cc2)n1 (stereo not shown) [Compound 114]	100	100		
[O-][N+]1(Cc2ccc(Oc3ncccn3)cc2)CCC(O)(C(c2ccc(Cl)c(F)c2)c2ccc(Cl)c(F)c2)CC1 (stereo not shown) [Compound 115]	50	100		
[O-][N+]1(Cc2ccc(-c3ncccn3)cc2)CCC(O)(C(c2ccc(OC(F)(F)F)cc2)c2ccc(OC(F)(F)F)cc2)CC1 (stereo not shown) [Compound 116]	100	100		
[O-][N+]1(Cc2ccc(Oc3ccccn3)cc2)CCC(O)(C(c2ccc(OC(F)(F)F)cc2)c2ccc(OC(F)(F)F)cc2)CC1 (stereo not shown) [Compound 117, 4-{bis[4-(trifluoromethoxy)phenyl]methyl}-4-hydroxy-1-[(4-(2-pyridyloxy)phenyl)methyl]piperidin-1-oxide]			100	100
CCON=Cc1ccc(C[N+]2([O-])CCC(O)(C(c3ccc(OC(F)(F)F)cc3)c3ccc(OC(F)(F)F)cc3)CC2)cc1 (stereo not shown) [Compound 118]	100	100		
CC(C)OC(=O)Nc1ccc(C[N+]2([O-])CCC(O)(C(c3ccc(OC(F)(F)F)cc3)c3ccc(OC(F)(F)F)cc3)CC2)cc1 (stereo not shown) [Compound 119]	100	100		
[O-][N+]1(Cc2ccc(Oc3ncccn3)cc2)CCC(O)(C(c2ccc(C(F)(F)F)cc2)c2ccc(C(F)(F)F)cc2)CC1 (stereo not shown) [Compound 120]	100	100		
CCCOc1ccc(C[N+]2([O-])CCC(O)(C(O)(c3ccc(C(F)(F)F)cc3)c3ccc(C(F)(F)F)cc3)CC2)cc1 (stereo not shown) [Compound 121]	100	100		
Cn1nnc(-c2ccc(C[N+]3([O-])CCC(O)(C(O)(c4ccc(OC(F)(F)F)cc4)c4ccc(OC(F)(F)F)cc4)CC3)cc2)n1 (stereo not shown) [Compound 122]	100	100		
CCCOc1ccc(C[N+]2([O-])CCC(O)(C(O)(c3ccc(OC(F)(F)F)cc3)c3ccc(OC(F)(F)F)cc3)CC2)cc1 (stereo not shown) [Compound 123]	100	100		
FC(F)(F)Oc1ccc(C(c2ccc(OC(F)(F)F)cc2)C2(F)CCN(Cc3ccc(Oc4ncccn4)cc3)CC2)cc1 [Compound 192, 4-{bis[4-(trifluoromethoxy)phenyl]methyl}-4-fluoro-1-[(4-pyrimidin-2-yloxyphenyl)methyl]piperidine]			100	100

SMILES	Percent Mortality [%]	Percent Growth Inhibition [%]	mortality [%]	pest or weed control at 0.25 mmol/well [%]
FC(F)(F)c1ccc(C(c2ccc(C(F)(F)F)cc2)C2(F)CCN(Cc3ccc(Oc4ccccn4)cc3)CC2)cc1 [Compound 193]	100	100		
FC(F)(F)c1ccc(C(c2ccc(C(F)(F)F)cc2)C2(F)CCN(Cc3ccc(Oc4ncccn4)cc3)CC2)cc1 [Compound 194]	100	100		
CCOC(=O)C1(C(Cl)(c2ccc(C(F)(F)F)cc2)c2ccc(C(F)(F)F)cc2)CCN(Cc2ccc(Oc3ccccn3)cc2)CC1 [Compound 195, ethyl 4-{bis[4-(trifluoromethyl)phenyl]chloromethyl}-1-[(4-(2-pyridyloxy)phenyl)methyl]piperidine-4-carboxylate]			100	100
Cc1ccc(Oc2ccc(CN3CCC(O)(C(c4ccc(OC(F)(F)F)cc4)c4ccc(OC(F)(F)F)cc4)CC3)cc2)nn1 [Compound 255]	100	100		
O=Cc1ccc(C(c2ccc(OC(F)(F)F)cc2)C2(O)CCN(Cc3ccc(Oc4ccccn4)cc3)CC2)cc1 (stereo not shown) [Compound 256]	17	100		
CC(C)(C)c1ccc(C(c2ccc(OC(F)(F)F)cc2)C2(O)CCN(Cc3ccc(Oc4ccccn4)cc3)CC2)cc1 (stereo not shown) [Compound 257]	100	100		
COCCOCCON=Cc1ccc(CN2CCC(O)(C(c3ccc(OC(F)(F)F)cc3)c3ccc(OC(F)(F)F)cc3)CC2)cc1 [Compound 258]	100	100		
CCOCON=Cc1ccc(CN2CCC(O)(C(c3ccc(OC(F)(F)F)cc3)c3ccc(OC(F)(F)F)cc3)CC2)cc1 [Compound 259]	100	100		
COc1ccc(C(c2ccc(OC(F)(F)F)cc2)C2(O)CCN(Cc3ccc(Oc4ccccn4)cc3)CC2)cc1 (stereo not shown) [Compound 260]	100	100		
OC1(C(c2ccc(Br)cc2)c2ccc(OC(F)(F)F)cc2)CCN(Cc2ccc(Oc3ccccn3)cc2)CC1 (stereo not shown) [Compound 261]	100	100		
Cc1ccc(C(c2ccc(OC(F)(F)F)cc2)C2(O)CCN(Cc3ccc(Oc4ccccn4)cc3)CC2)cc1 (stereo not shown) [Compound 262]	100	100		
OC1(C(c2ccc(OC(F)(F)F)cc2)c2ccc(OC(F)(F)F)cc2)CCN(Cc2ccc(C3OCCO3)cc2)CC1 [Compound 263]	100	100		
OC1(C(c2ccc(C(F)(F)F)cc2)c2ccc(C(F)(F)F)cc2)CCN(Cc2ccc(C3OCCO3)cc2)CC1 [Compound 264]	33	100		
OC1(C(c2ccc(OC(F)(F)F)cc2)c2ccc(C(F)(F)F)cc2)CCN(Cc2ccc(Oc3ccccn3)cc2)CC1 (stereo not shown) [Compound 265]	100	100		
COCCON=Cc1ccc(CN2CCC(O)(C(c3ccc(OC(F)(F)F)cc3)c3ccc(OC(F)(F)F)cc3)CC2)cc1 [Compound 266]	100	100		
OC1(C(c2ccc(Cl)cc2)c2ccc(Cl)cc2)CCN(Cc2ccc(Oc3ccccn3)cc2)CC1 [Compound 267]	100	100		
ON=Cc1ccc(CN2CCC(O)(C(c3ccc(C(F)(F)F)cc3)c3ccc(C(F)(F)F)cc3)CC2)cc1 [Compound 270]	100	100		

Reference: patent US8119563B2, “N-substituted azacycles” (FMC Corporation, priority 2003, dated 2012)
